Experimental data: the NIST ThermoML archive (doi:10.1021/je700294p)

What was measured:
[1] = excess molar enthalpy (molar enthalpy of mixing); xn = mol fraction of the nth substance listed; conditions: 101 kPa, Liquid
[2] = xn = mol fraction of the nth substance listed; conditions: 101 kPa, Liquid
[3] = refractive index (Na D-line) (dimensionless); conditions: 101.33 kPa, Liquid, Standard Abbe refractometry
[4] = 101.33 kPa, Liquid, Vibrating tube method

CCCC[n+]1cccc(C)c1.F[B-](F)(F)F [1-butyl-3-methylpyridinium tetrafluoroborate] + CO
Conditions | excess molar enthalpy [kcal/mol] | mass density [kg/m3]
[1], 298.15 K, x1 = 0.0057 | 0.0261 | –
[1], 298.15 K, x1 = 0.0149 | 0.0545 | –
[1], 298.15 K, x1 = 0.0279 | 0.0923 | –
[1], 298.15 K, x1 = 0.044 | 0.13 | –
[1], 298.15 K, x1 = 0.0635 | 0.167 | –
[1], 298.15 K, x1 = 0.0842 | 0.202 | –
[1], 298.15 K, x1 = 0.1071 | 0.237 | –
[1], 298.15 K, x1 = 0.1312 | 0.271 | –
[1], 298.15 K, x1 = 0.1585 | 0.308 | –
[1], 298.15 K, x1 = 0.1851 | 0.332 | –
[1], 298.15 K, x1 = 0.2119 | 0.359 | –
[1], 298.15 K, x1 = 0.2357 | 0.373 | –
[1], 298.15 K, x1 = 0.2672 | 0.382 | –
[1], 298.15 K, x1 = 0.3069 | 0.386 | –
[1], 298.15 K, x1 = 0.3541 | 0.383 | –
[1], 298.15 K, x1 = 0.41 | 0.377 | –
[1], 298.15 K, x1 = 0.4816 | 0.361 | –
[1], 298.15 K, x1 = 0.5621 | 0.33 | –
[1], 298.15 K, x1 = 0.7167 | 0.257 | –
[1], 298.15 K, x1 = 0.7441 | 0.227 | –
[1], 298.15 K, x1 = 0.8438 | 0.158 | –
[1], 298.15 K, x1 = 0.9196 | 0.0942 | –
[1], 298.15 K, x1 = 0.9707 | 0.0416 | –
[1], 318.15 K, x1 = 0.0159 | 0.0588 | –
[1], 318.15 K, x1 = 0.0352 | 0.121 | –
[1], 318.15 K, x1 = 0.0581 | 0.173 | –
[1], 318.15 K, x1 = 0.0823 | 0.224 | –
[1], 318.15 K, x1 = 0.1098 | 0.281 | –
[1], 318.15 K, x1 = 0.1382 | 0.336 | –
[1], 318.15 K, x1 = 0.1674 | 0.39 | –
[1], 318.15 K, x1 = 0.197 | 0.43 | –
[1], 318.15 K, x1 = 0.2147 | 0.462 | –
[1], 318.15 K, x1 = 0.2317 | 0.488 | –
[1], 318.15 K, x1 = 0.2641 | 0.512 | –
[1], 318.15 K, x1 = 0.2984 | 0.533 | –
[1], 318.15 K, x1 = 0.3343 | 0.544 | –
[1], 318.15 K, x1 = 0.3787 | 0.548 | –
[1], 318.15 K, x1 = 0.4391 | 0.538 | –
[1], 318.15 K, x1 = 0.5504 | 0.477 | –
[1], 318.15 K, x1 = 0.6911 | 0.349 | –
[1], 318.15 K, x1 = 0.8526 | 0.191 | –
[2], 298.15 K, x1 = 0.0493 | – | 873.4
[2], 298.15 K, x1 = 0.0629 | – | 893.1
[2], 298.15 K, x1 = 0.0986 | – | 934.4
[2], 298.15 K, x1 = 0.1499 | – | 979.6
[2], 298.15 K, x1 = 0.2007 | – | 1014.7
[2], 298.15 K, x1 = 0.2956 | – | 1061.6
[2], 298.15 K, x1 = 0.4052 | – | 1098.2
[2], 298.15 K, x1 = 0.5128 | – | 1122.8
[2], 298.15 K, x1 = 0.6009 | – | 1138.7
[2], 298.15 K, x1 = 0.6913 | – | 1151.7
[2], 298.15 K, x1 = 0.7611 | – | 1159.7
[2], 318.15 K, x1 = 0.0557 | – | 865.7
[2], 318.15 K, x1 = 0.1052 | – | 924.3
[2], 318.15 K, x1 = 0.1493 | – | 964
[2], 318.15 K, x1 = 0.2479 | – | 1025.1
[2], 318.15 K, x1 = 0.3016 | – | 1048.4
[2], 318.15 K, x1 = 0.3944 | – | 1079.5
[2], 318.15 K, x1 = 0.497 | – | 1104.7
[2], 318.15 K, x1 = 0.5868 | – | 1121.6
[2], 318.15 K, x1 = 0.7088 | – | 1139.8
[2], 318.15 K, x1 = 0.855 | – | 1156.2
[2], 318.15 K, x1 = 0.9465 | – | 1164.4

CCCC[n+]1cccc(C)c1.F[B-](F)(F)F [1-butyl-3-methylpyridinium tetrafluoroborate] + O
Conditions | excess molar enthalpy [kcal/mol] | mass density [kg/m3]
[1], 298.15 K, x1 = 0.006 | 0.0186 | –
[1], 298.15 K, x1 = 0.0137 | 0.0399 | –
[1], 298.15 K, x1 = 0.0226 | 0.0636 | –
[1], 298.15 K, x1 = 0.0328 | 0.0894 | –
[1], 298.15 K, x1 = 0.0448 | 0.117 | –
[1], 298.15 K, x1 = 0.058 | 0.146 | –
[1], 298.15 K, x1 = 0.0724 | 0.175 | –
[1], 298.15 K, x1 = 0.0876 | 0.205 | –
[1], 298.15 K, x1 = 0.1038 | 0.235 | –
[1], 298.15 K, x1 = 0.1204 | 0.264 | –
[1], 298.15 K, x1 = 0.1234 | 0.268 | –
[1], 298.15 K, x1 = 0.1415 | 0.298 | –
[1], 298.15 K, x1 = 0.1713 | 0.326 | –
[1], 298.15 K, x1 = 0.1993 | 0.35 | –
[1], 298.15 K, x1 = 0.2307 | 0.372 | –
[1], 298.15 K, x1 = 0.2676 | 0.387 | –
[1], 298.15 K, x1 = 0.3091 | 0.391 | –
[1], 298.15 K, x1 = 0.3573 | 0.383 | –
[1], 298.15 K, x1 = 0.4051 | 0.366 | –
[1], 298.15 K, x1 = 0.4511 | 0.349 | –
[1], 298.15 K, x1 = 0.5139 | 0.318 | –
[1], 298.15 K, x1 = 0.6139 | 0.261 | –
[1], 298.15 K, x1 = 0.7899 | 0.151 | –
[1], 318.15 K, x1 = 0.0058 | 0.0227 | –
[1], 318.15 K, x1 = 0.0136 | 0.0519 | –
[1], 318.15 K, x1 = 0.0231 | 0.0841 | –
[1], 318.15 K, x1 = 0.0339 | 0.116 | –
[1], 318.15 K, x1 = 0.0459 | 0.149 | –
[1], 318.15 K, x1 = 0.0605 | 0.184 | –
[1], 318.15 K, x1 = 0.0774 | 0.222 | –
[1], 318.15 K, x1 = 0.0961 | 0.26 | –
[1], 318.15 K, x1 = 0.1167 | 0.299 | –
[1], 318.15 K, x1 = 0.1225 | 0.306 | –
[1], 318.15 K, x1 = 0.1348 | 0.329 | –
[1], 318.15 K, x1 = 0.1378 | 0.334 | –
[1], 318.15 K, x1 = 0.1574 | 0.369 | –
[1], 318.15 K, x1 = 0.1845 | 0.402 | –
[1], 318.15 K, x1 = 0.2023 | 0.435 | –
[1], 318.15 K, x1 = 0.2358 | 0.464 | –
[1], 318.15 K, x1 = 0.2685 | 0.488 | –
[1], 318.15 K, x1 = 0.3026 | 0.502 | –
[1], 318.15 K, x1 = 0.3403 | 0.513 | –
[1], 318.15 K, x1 = 0.3889 | 0.512 | –
[1], 318.15 K, x1 = 0.4492 | 0.493 | –
[1], 318.15 K, x1 = 0.5301 | 0.453 | –
[1], 318.15 K, x1 = 0.6433 | 0.366 | –
[1], 318.15 K, x1 = 0.8206 | 0.201 | –
[2], 298.15 K, x1 = 0.0182 | – | 1027.1
[2], 298.15 K, x1 = 0.0376 | – | 1050.3
[2], 298.15 K, x1 = 0.0567 | – | 1067.1
[2], 298.15 K, x1 = 0.0995 | – | 1093.7
[2], 298.15 K, x1 = 0.1608 | – | 1116.8
[2], 298.15 K, x1 = 0.2208 | – | 1131.4
[2], 298.15 K, x1 = 0.2975 | – | 1143.6
[2], 298.15 K, x1 = 0.3909 | – | 1154
[2], 298.15 K, x1 = 0.4861 | – | 1161.5
[2], 298.15 K, x1 = 0.5827 | – | 1167.2
[2], 298.15 K, x1 = 0.6761 | – | 1171.8
[2], 298.15 K, x1 = 0.8091 | – | 1176.6
[2], 298.15 K, x1 = 0.8376 | – | 1177.6
[2], 298.15 K, x1 = 0.8942 | – | 1179.4
[2], 318.15 K, x1 = 0.0466 | – | 1046.8
[2], 318.15 K, x1 = 0.1004 | – | 1080.4
[2], 318.15 K, x1 = 0.1523 | – | 1099.8
[2], 318.15 K, x1 = 0.1991 | – | 1112.4
[2], 318.15 K, x1 = 0.251 | – | 1122.2
[2], 318.15 K, x1 = 0.3038 | – | 1130.2
[2], 318.15 K, x1 = 0.4108 | – | 1141.5
[2], 318.15 K, x1 = 0.5062 | – | 1148.8
[2], 318.15 K, x1 = 0.5822 | – | 1153.3
[2], 318.15 K, x1 = 0.7042 | – | 1158.9
[2], 318.15 K, x1 = 0.7551 | – | 1160.9
[2], 318.15 K, x1 = 0.7904 | – | 1162.3
[2], 318.15 K, x1 = 0.8123 | – | 1163.2
[2], 318.15 K, x1 = 0.8988 | – | 1165.7
[2], 318.15 K, x1 = 0.918 | – | 1166.3

CCCCO [butan-1-ol]
Conditions | mass density, [4] [kg/m3] | refractive index, [3]
298.15 K | 805.95 | 1.3968
318.15 K | 790.27 | 1.39

CCO [ethanol]
Conditions | mass density, [4] [kg/m3] | refractive index, [3]
298.15 K | 785.15 | 1.36
318.15 K | 767.57 | 1.3548

CO [methanol]
Conditions | mass density, [4] [kg/m3] | refractive index, [3]
298.15 K | 786.44 | 1.3268
318.15 K | 768.04 | 1.319

CCCO [propan-1-ol]
Conditions | mass density, [4] [kg/m3] | refractive index, [3]
298.15 K | 799.7 | 1.3831
318.15 K | 783.16 | 1.3757
